Experiments:
Type in all cases: in vivo
[1] = test system: Puccinia striiformis (PUCCST); experiment: Field assessment of Compound I and penthiopyrad on yellow rust of wheat (AUDPC % control); settings: AUDPC-based, 2 field trials
Excerpt: Treatments consisting of the compound of Formula I and fungicide compound penthiopyrad were applied either using individually or as a two-way mixture of penthiopyrad with the compound of Formula I. The compound of Formula I was applied with Agnique BP-420 (50% w/w at 0.3% v/v) at 75 and 150 g ai/ha and Penthiopyrad (Vertisan) was applied at 125 and 200 g ai/ha. Commercial standards used in the studies were Fluxapyroxad (Imtrex), applied at 100 g ai/ha, and Metconazole+Fluxapyroxad (Librax), applied at 161 g ai/ha.
Fungicidal treatments containing the compound of Formula I and penthiopyrad, either individually or as a two-way mixture, were assessed against yellow rust of wheat (PUCCST) in two separate field trials. In the first trial, fungicidal treatments were applied twice at B31-32 (early curative, 2% infection at application on L3) and B37-39 (0% infection at application on L) growth stages of winter wheat (TRZAW, Fairplay variety). The treatments were part of an experimental trial designed as a randomized complete block with four replications and a plot of approximately 1×6 m. Treatments were applied at water volume of 200 L/ha, using a backpack plot sprayer (BKPCKENG, F110-015 Hardi (3) Flat fan nozzle) and pressurized at 200 kPa.
In the second trial, fungicidal treatments containing the compound of Formula I and penthiopyrad, either individually or as a two-way mixture, were applied twice at B31-32 (early curative, 5% infection on L5 at application) and B37-39 (early curative, 5% infection on L1 and L2 at application) growth stages of wheat (TRZAW, Torch variety). The treatment was part of an experimental trial designed as a randomized complete block with four replications and a plot of approximately 2×3 m. Treatments were applied at water volume of 200 L/ha, using a backpack precision plot sprayer (BKCKAIR, F110-03 Hypro (4) Flat fan nozzle) and pressurized at 300 kPa.
(§1) Disease severity (percentage of visual diseased foliage on whole plot or leaves) in both field trials was recorded following EPPO PP1/26 guideline prescriptions. Area under the disease progress curve (AUDPC) was calculated for each plot in both trials using the sets of recorded severity data. Relative AUDPC (% control based on AUDPC) was calculated as percent of the nontreated control. Final results for the control of yellow rust of wheat by the compound of Formula I, penthiopyrad and mixtures are reported as an average of the relative AUDPC calculated over all three field trials. Statistical analysis was done according to ANOVA and Tukey's test (p=0.10).

[2] = test system: Puccinia triticina (PUCCRT); experiment: Field assessment of Compound I and fluxapyroxad on brown rust of wheat (AUDPC % control); settings: AUDPC-based, 5 field trials
Excerpt: (§2) Treatments consisting of the compound of Formula I and fungicide compound fluxapyroxad against fungal diseases of wheat were applied either using individually or as a two-way mixture of fluxapyroxad with the compound of Formula I. The compound of Formula I was applied with Agnique BP-420 (50% w/w at 0.3% v/v) at 50, 75 and 100 g ai/ha and Imtrex (Fluxapyroxad 62.5 g/L) was applied at 50, 75 and 100 g ai/ha. Commercial standards used in the studies were Adexar (epoxiconazole+fluxapyroxad—125 g/L), applied at 1.2 and 1.6 L pr/ha, and Elatus Era (benzovindiflupyr+prothioconazole—225 g/L), applied at 1.0 L pr/ha.
Fungicidal treatments containing the compound of Formula I and fluxapyroxad, either individually or as a two-way mixture, were assessed against brown rust of wheat (PUCCRT) in five separate field trials. In all trials, fungicidal treatments were applied at B34-51 growth stages of winter wheat (TRZAW; ATOUDUR, MIRADOUX, IRIDIUM or MV Vanek variety) under natural infection of brown rust (protectant tests, approximately 0-8% infection on leaf 3 or 4 at application). All treatments were part of an experimental trial designed as a randomized complete block with four replications and plot sizes of approximately 2×2 m to 2×7.5 m. Fungicidal treatments were applied at a water volume of 200 L/ha, using a backpack plot sprayer (BKPKAIR or BKPCENG) with a FLATFAN or AIRASST Nozzle pressurized at 210-250 kPa.
as §1, with “leaves) in five field trials” for “leaves) in both field trials”, “control of brown rust of” for “control of yellow rust of”, “Formula I, fluxapyroxad and mixtures” for “Formula I, penthiopyrad and mixtures”, “over all five field trials.” for “over all three field trials.”

[3] = test system: Puccinia striiformis (PUCCST); experiment: Field assessment of Compound I and fluxapyroxad on yellow rust of wheat (AUDPC % control); settings: AUDPC-based, 2 field trials
Excerpt: as §2
Fungicidal treatments containing the compound of Formula I and fluxapyroxad, either individually or as a two-way mixture, were assessed against yellow rust of wheat (PUCCST) in two separate field trials. In the first trial, fungicidal treatments were applied once at B37 (early curative, 6.5% infection at application on L3) growth stage of winter wheat (TRZAW, Fairplay variety). The treatments were part of an experimental trial designed as a randomized complete block with four replications and a plot of approximately 2×6 m. Treatments were applied at water volume of 200 L/ha, using a backpack plot sprayer (BKPCKAIR, FLATFANA nozzle) and pressurized at 300 kPa.
In the second trial, fungicidal treatments containing the compound of Formula I and fluxapyroxad, either individually or as a two-way mixture, were applied once at B33-37 (early curative, 0.5% infection on L2 at application) growth stages of wheat (TRZAW, SOLSTICE variety). The treatment was part of an experimental trial designed as a randomized complete block with four replications and a plot of approximately 1.5×14 m. Treatments were applied at water volume of 200 L/ha, using a backpack precision plot sprayer (BKCKAIR, FLAT FAN nozzle) and pressurized at 210 kPa.
as §1, with “fluxapyroxad” for “penthiopyrad”, “both” for “all three”

SMILES	PUCCST % Control ([1]; rate 75 g ai/ha) [%]	PUCCST % Control ([1]; rate 150 g ai/ha) [%]	PUCCRT % Control ([2]; rate 50 g ai/ha) [%]	PUCCRT % Control ([2]; rate 75 g ai/ha) [%]	PUCCRT % Control ([2]; rate 100 g ai/ha) [%]	PUCCST % Control ([3]; rate 50 g ai/ha) [%]	PUCCST % Control ([3]; rate 75 g ai/ha) [%]	PUCCST % Control ([3]; rate 100 g ai/ha) [%]
N#Cc1ccc(Oc2ccc(C(F)(F)C(O)(Cn3ncnc3S)c3ccc(F)cc3F)nc2)cc1 (centres unmarked) [Compound I, 4-((6-(2-(2,4-difluorophenyl)-1,1-difluoro-2-hydroxy-3-(5-mercapto-1H-1,2,4-triazol-1-yl)propyl)pyridin-3-yl)oxy)benzonitrile]	72.8	76.4	86.0	90.0	93.4	80.0	93.3	98.0
Cn1cc(C(=O)Nc2ccccc2-c2cc(F)c(F)c(F)c2)c(C(F)F)n1 [Fluxapyroxad, 3-(difluoromethyl)-1-methyl-N-(3′,4′,5′-trifluorobiphenyl-2-yl)pyrazole-4-carboxamide]	–	–	84.0	94.0	95.3	74.1	69.0	79.4

— patent publication US20190297888A1, “FUNGICIDAL COMPOUNDS AND MIXTURES FOR FUNGAL CONTROL IN CEREALS” (Dow AgroSciences LLC, priority 2016, published 2019)
